Where two headings read alike, the source gives them in different places.
What was measured:
[1] = target: T1, HCV NS3/4A protease complex, BMS strain (UniProt P27958, species not given/STRAIN_BMS); assay: FRET peptide assay to monitor HCV NS3/4A proteolytic activity (BMS strain); format: biochemical, Hepatitis C virus (genotype 1a)
T1 construct: DNA encoding the recombinant HCV NS3/4A protease complex (amino acids 1027 to 1711) for these strains [H77 and J4L6S]; fused on or other part: For the H77 and J4L6S constructs, a three-lysine solubilising tail at the NS4A C-terminus and a Ni-NTA-purifiable tag from pET21b
T1 sequence (P27958 1027-1657, stated change not applied, one chain of several): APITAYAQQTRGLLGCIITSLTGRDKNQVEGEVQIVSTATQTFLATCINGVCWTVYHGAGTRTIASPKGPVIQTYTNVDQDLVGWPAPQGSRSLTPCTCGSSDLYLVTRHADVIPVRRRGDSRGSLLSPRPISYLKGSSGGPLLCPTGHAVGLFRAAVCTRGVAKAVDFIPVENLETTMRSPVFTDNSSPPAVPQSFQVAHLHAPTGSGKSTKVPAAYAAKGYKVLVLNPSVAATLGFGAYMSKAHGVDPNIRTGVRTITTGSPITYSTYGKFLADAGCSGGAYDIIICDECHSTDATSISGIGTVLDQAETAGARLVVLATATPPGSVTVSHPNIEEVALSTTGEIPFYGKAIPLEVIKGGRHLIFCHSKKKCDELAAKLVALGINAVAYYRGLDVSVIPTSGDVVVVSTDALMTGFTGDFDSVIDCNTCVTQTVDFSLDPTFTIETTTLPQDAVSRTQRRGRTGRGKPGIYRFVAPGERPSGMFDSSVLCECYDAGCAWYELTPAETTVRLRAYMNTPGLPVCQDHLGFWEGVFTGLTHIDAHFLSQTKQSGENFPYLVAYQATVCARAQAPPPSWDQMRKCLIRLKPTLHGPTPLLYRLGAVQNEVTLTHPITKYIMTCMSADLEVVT
Source text: Generation of Recombinant HCV NS3/4A Protease Complex
HCV NS3 protease complexes, derived from the BMS strain, H77 strain or J4L6S strain, were generated, as described below. These purified recombinant proteins were generated for use in a homogeneous assay (see below) to provide an indication of how effective compounds of the present disclosure would be in inhibiting HCV NS3 proteolytic activity.
Serum from an HCV-infected patient was obtained from Dr. T. Wright, San Francisco Hospital. An engineered full-length cDNA (compliment deoxyribonucleic acid) template of the HCV genome (BMS strain) was constructed from DNA fragments obtained by reverse transcription-PCR (RT-PCR) of serum RNA (ribonucleic acid) and using primers selected on the basis of homology between other genotype 1a strains. From the determination of the entire genome sequence, a genotype 1a was assigned to the HCV isolate according to the classification of Simmonds et al. (See P Simmonds, K A Rose, S Graham, S W Chan, F McOmish, B C Dow, E A Follett, P L Yap and H Marsden, J. Clin. Microbiol., 31(6), 1493-1503 (1993)). […] The infectious clones, H77 (1a genotype) and J4L6S (1b genotype) were obtained from R. Purcell (NIH) and the sequences are published in Genbank (AAB67036, see Yanagi, M., Purcell, R. H., Emerson, S. U. and Bukh, J. Proc. Natl. Acad. Sci. U.S.A. 94(16), 8738-8743 (1997); AF054247, see Yanagi, M., St Claire, M., Shapiro, M., Emerson, S. U., Purcell, R. H. and Bukh, J, Virology 244 (1), 161-172. (1998)).
The H77 and J4L6S strains were used for production of recombinant NS3/4A protease complexes. DNA encoding the recombinant HCV NS3/4A protease complex (amino acids 1027 to 1711) for these strains were manipulated as described by P. Gallinari et al. (see Gallinari P, Paolini C, Brennan D, Nardi C, Steinkuhler C, De Francesco R. Biochemistry. 38(17):5620-32, (1999)). Briefly, a three-lysine solubilizing tail was added at the 3′-end of the NS4A coding region. The cysteine in the P1 position of the NS4A-NS4B cleavage site (amino acid 1711) was changed to a glycine to avoid the proteolytic cleavage of the lysine tag. Furthermore, a cysteine to serine mutation was introduced by PCR at amino acid position 1454 to prevent the autolytic cleavage in the NS3 helicase domain. The variant DNA fragment was cloned in the pET21b bacterial expression vector (Novagen) and the NS3/4A complex was expressed in Escherichia coli strain BL21 (DE3) (Invitrogen) following the protocol described by P. Gallinari et al. (see Gallinari P, Brennan D, Nardi C, Brunetti M, Tomei L, Steinkuhler C, De Francesco R., J. Virol. 72(8):6758-69 (1998)) with modifications. Briefly, the NS3/4A protease complex expression was induced with 0.5 millimolar (mM) Isopropyl β-D-1-thiogalactopyranoside (IPTG) for 22 hours (h) at 20° C. A typical fermentation (1 Liter (L)) yielded approximately 10 grams (g) of wet cell paste. The cells were resuspended in lysis buffer (10 mL/g) consisting of 25 mM N-(2-Hydroxyethyl)piperazine-N′-(2-Ethane Sulfonic acid) (HEPES), pH 7.5, 20% glycerol, 500 mM Sodium Chloride (NaCl), 0.5% Triton X-100, 1 microgram/milliliter (“μg/mL”) lysozyme, 5 mM Magnesium Chloride (MgCl2), 1 μg/mL DnaseI, 5 mM β-Mercaptoethanol (βME), Protease inhibitor—Ethylenediamine Tetraacetic acid (EDTA) free (Roche), homogenized and incubated for 20 minutes (min) at 4° C. The homogenate was sonicated and clarified by ultra-centrifugation at 235000 g for 1 h at 4° C. Imidazole was added to the supernatant to a final concentration of 15 mM and the pH adjusted to 8.0. The crude protein extract was loaded on a Nickel—Nitrilotriacetic acid (Ni-NTA) column pre-equilibrated with buffer B (25 mM HEPES, pH 8.0, 20% glycerol, 500 mM NaCl, 0.5% Triton X-100, 15 mM imidazole, 5 mM βME). The sample was loaded at a flow rate of 1 mL/min. The column was washed with 15 column volumes of buffer C (same as buffer B except with 0.2% Triton X-100). […]

[2] = test system: HCV replicon in HUH-7 cells; assay: HCV replicon FRET assay; format: cell-based, Hepatitis C virus (strain 1b)
Source text: Generation of HCV Replicon
An HCV replicon whole cell system was established as described by Lohmann V, Korner F, Koch J, Herian U, Theilmann L, Bartenschlager R., Science 285(5424):110-3 (1999). This system enabled us to evaluate the effects of our HCV Protease compounds on HCV RNA replication. Briefly, using the HCV strain 1b sequence described in the Lohmann paper (Assession number:AJ238799), an HCV cDNA was synthesized by Operon Technologies, Inc. (Alameda, Calif.), and the full-length replicon was then assembled in plasmid pGem9zf(+) (Promega, Madison, Wis.) using standard molecular biology techniques. The replicon consists of (i) the HCV 5′ UTR fused to the first 12 amino acids of the capsid protein, (ii) the neomycin phosphotransferase gene (neo), (iii) the IRES from encephalomyocarditis virus (EMCV), and (iv) HCV NS3 to NS5B genes and the HCV 3′ UTR. Plasmid DNAs were linearized with ScaI and RNA transcripts were synthesized in vitro using the T7 MegaScript transcription kit (Ambion, Austin, Tex.) according to manufacturer's directions. In vitro transcripts of the cDNA were transfected into the human hepatoma cell line, HUH-7. […] Resulting cell lines were characterized for positive and negative strand RNA production and protein production over time.
The HCV replicon FRET assay was developed to monitor the inhibitory effects of compounds described in the disclosure on HCV viral replication. HUH-7 cells, constitutively expressing the HCV replicon, were grown in Dulbecco's Modified Eagle Media (DMEM) (Gibco-BRL) containing 10% Fetal calf serum (FCS) (Sigma) and 1 mg/mL G418 (Gibco-BRL). Cells were seeded the night before (1.5×10^4 cells/well) in 96-well tissue-culture sterile plates. Compound and no compound controls were prepared in DMEM containing 4% FCS, 1:100 Penicillin/Streptomysin (Gibco-BRL), 1:100 L-glutamine and 5% DMSO in the dilution plate (0.5% DMSO final concentration in the assay). Compound/DMSO mixes were added to the cells and incubated for 4 days at 37° C. After 4 days, cells were first assessed for cytotoxicity using alamar Blue (Trek Diagnotstic Systems) for a CC50 reading. The toxicity of compound (CC50) was determined by adding 1/10th volume of alamar Blue to the media incubating the cells. After 4 h, the fluorescence signal from each well was read, with an excitation wavelength at 530 nm and an emission wavelength of 580 nm, using the Cytofluor Series 4000 (Perspective Biosystems). Plates were then rinsed thoroughly with Phosphate-Buffered Saline (PBS) (3 times 150 μl).

[3] = read-out: IC 50 Range; NS3/4A BMS strain, enzyme assay
[4] = Hepatitis C virus, HCV replicon cell assay, HUH-7, read-out: EC50 Range
[5] = NS3/4A BMS strain, enzyme assay; read-out: IC 50 Range
[6] = HCV replicon cell assay, HUH-7, read-out: EC50 Range

Compound	IC50 [1, 3] [µM]	EC50 [2, 4] [µM]	IC50 [1, 5] [µM]	EC50 [2, 6] [µM]	EC50 ([2]; Hepatitis C virus, Huh-7, read-out: EC50 Range) [µM]
C=CC1CC1(NC(=O)[C@@H]1C[C@@H](NC(=O)Nc2cccc3ccccc23)CN1C(=O)[C@@H](NC(=O)OC(C)(C)C)C(C)(C)C)C(=O)NS(=O)(=O)C1CC1 (some centres unmarked) [Compound 43]	< 0.15	> 15			
C=CC1CC1(NC(=O)[C@@H]1C[C@@H](NC(=O)c2cc3ccccc3s2)CN1C(=O)[C@@H](NC(=O)CC1CC1)C(C)(C)C)C(=O)NS(=O)(=O)C1CC1 (some centres unmarked) [Compound 32]		0.15 to 15	< 0.15		
C=CC1CC1(NC(=O)[C@@H]1C[C@@H](NC(=O)c2sc3ccccc3c2Cl)CN1C(=O)[C@@H](NC(=O)CC1CC1)C(C)(C)C)C(=O)NS(=O)(=O)C1CC1 (some centres unmarked) [Compound 29]		0.15 to 15	< 0.15		
C=CC1CC1(NC(=O)[C@@H]1C[C@@H](NC(=O)NCc2ccccc2)CN1C(=O)[C@@H](NC(=O)OC(C)(C)C)C(C)(C)C)C(=O)NS(=O)(=O)C1CC1 (some centres unmarked) [Compound 44]		> 15	0.15 to 15		
C=CC1CC1(NC(=O)[C@@H]1C[C@@H](NC(=O)c2cccc3cccnc23)CN1C(=O)[C@@H](NC(=O)CC1CC1)C(C)(C)C)C(=O)NS(=O)(=O)C1CC1 (some centres unmarked) [Compound 31]		0.15 to 15	< 0.15		
C=CC1CC1(NC(=O)[C@@H]1C[C@@H](NC(=O)c2c(OCC)ccc3ccccc23)CN1C(=O)[C@@H](NC(=O)CC1CC1)C(C)(C)C)C(=O)NS(=O)(=O)C1CC1 (some centres unmarked) [Compound 37]		> 15	0.15 to 15		
C=CC1CC1(NC(=O)[C@@H]1C[C@@H](NC(=O)c2c(C)nc3sccn23)CN1C(=O)[C@@H](NC(=O)CC1CC1)C(C)(C)C)C(=O)NS(=O)(=O)C1CC1 (some centres unmarked) [Compound 20]		> 15	< 0.15		
C=CC1CC1(NC(=O)[C@@H]1C[C@@H](NC(=O)c2sc3ccccc3c2Cl)CN1C(=O)[C@@H](NC(=O)CC1CC1)C(C)(C)C)C(=O)NS(=O)(=O)C1CC1 (single isomer, unassigned) [Compound 4]			< 0.15	0.15 to 15	
C=CC1CC1(NC(=O)C1CC(NC(=O)c2cccc[n+]2[O-])CN1C(=O)C(NC(=O)CC1CC1)C(C)(C)C)C(=O)NS(=O)(=O)C1CC1 (centres unmarked) [Compound 33]	0.15 to 15	> 15			
C=CC1CC1(NC(=O)[C@@H]1C[C@@H](NC(=O)c2nccc3ccccc23)CN1C(=O)[C@@H](NC(=O)CC1CC1)C(C)(C)C)C(=O)NS(=O)(=O)C1CC1 (some centres unmarked) [Compound 24]		> 15	0.15 to 15		
C=CC1CC1(NC(=O)[C@@H]1C[C@@H](NC(=O)c2cc3ccccc3cn2)CN1C(=O)[C@@H](NC(=O)CC1CC1)C(C)(C)C)C(=O)NS(=O)(=O)C1CC1 (some centres unmarked) [Compound 28]		0.15 to 15	< 0.15		
C=CC1CC1(NC(=O)[C@@H]1C[C@@H](NC(=O)c2cccc3c2OCC3)CN1C(=O)[C@@H](NC(=O)CC1CC1)C(C)(C)C)C(=O)NS(=O)(=O)C1CC1 (some centres unmarked) [Compound 30]		> 15	0.15 to 15		
C=CC1CC1(NC(=O)[C@@H]1C[C@@H](NS(=O)(=O)c2cccc3c(N(C)C)cccc23)CN1C(=O)[C@@H](NC(=O)OC(C)(C)C)C(C)(C)C)C(=O)NS(=O)(=O)C1CC1 (some centres unmarked) [Compound 49]		> 15	0.15 to 15		
C=CC1CC1(NC(=O)[C@@H]1C[C@@H](NCc2ccnc3ccccc23)CN1C(=O)[C@@H](NC(=O)OC(C)(C)C)C(C)(C)C)C(=O)NS(=O)(=O)C1CC1 (some centres unmarked) [Compound 47]		> 15	< 0.15		
C=CC1CC1(NC(=O)[C@@H]1C[C@@H](NC(=O)OCC2c3ccccc3-c3ccccc32)CN1C(=O)[C@@H](NC(=O)CC1CC1)C(C)(C)C)C(=O)NS(=O)(=O)C1CC1 (some centres unmarked) [Compound 7]		> 15	0.15 to 15		
C=CC1CC1(NC(=O)[C@@H]1C[C@@H](NC(=O)c2cn(CC)c3cc4c(cc3c2=O)OCO4)CN1C(=O)[C@@H](NC(=O)CC1CC1)C(C)(C)C)C(=O)NS(=O)(=O)C1CC1 (some centres unmarked) [Compound 40]	< 0.15	> 15			
C=CC1CC1(NC(=O)[C@@H]1C[C@@H](NC(=O)c2c(C)nc3ccccn23)CN1C(=O)[C@@H](NC(=O)CC1CC1)C(C)(C)C)C(=O)NS(=O)(=O)C1CC1 (some centres unmarked) [Compound 18]			0.15 to 15	> 15	
C=CC1CC1(NC(=O)[C@@H]1C[C@@H](NC(=O)n2ccc3ccccc32)CN1C(=O)[C@@H](NC(=O)CC1CC1)C(C)(C)C)C(=O)NS(=O)(=O)C1CC1 (some centres unmarked) [Compound 51]	< 0.15				0.15 to 15
C=CC1CC1(NC(=O)[C@@H]1C[C@@H](NC(=O)c2ccnc3ccccc23)CN1C(=O)[C@@H](NC(=O)CC1CC1)C(C)(C)C)C(=O)NS(=O)(=O)C1CC1 (some centres unmarked) [Compound 10]		> 15	0.15 to 15		
